Source: article PMC9888480, “Carboranyl-1,8-naphthalimide intercalators induce lysosomal membrane permeabilization and ferroptosis in cancer cell lines” (Journal of Enzyme Inhibition and Medicinal Chemistry, 2023)

Tests used:
[1] = system: HepG2 cells; experiment: Ca2+ homeostasis determination (Rhod-2 AM); format: cell-based, human; conditions: HepG2, 24 h, total IC50 concentration
Protocol: Ca^2+ released was determined by the selective dye Calcium Rhod-2 AM (Thermo Fisher Scientific), which binds specifically to Ca^2+ ions that are related to an increase in dihydrorhod-2 AM concentration, and thus, an enhancement in fluorescence intensity occurred. After treatment, the cells were detached with trypsin (Corning®), washed with 1 ml of DPBS (Capricorn), and then resuspended in EMEM with 2.5 µM Rhod-2 AM. All the samples were incubated for 15 min at 37 °C in the dark, and fluorescence intensity was then analysed at an excitation/emission wavelength of 552/581 nm. The cells were analysed after incubation with the dye with excitation at 488 nm using a FACSCalibur flow cytometer (Becton Dickinson), and the data were analysed using the FlowJo software (Becton Dickinson).

[2] = system: relaxed pBR 322 plasmid DNA; experiment: DNA unwinding assay, relaxed plasmid as substrate; format: binding; conditions: 10 µM, in the presence of Topo I
Excerpt: Compounds that are able to intercalate into DNA or bind in the groove are involved in the local unwinding of the DNA, leading to a decrease in the twist number and an increase in the writhe number of the previously relaxed plasmid DNA used in the assay, resulting in a positively supercoiled DNA. If this DNA is then nicked by a topoisomerase, the enzyme will remove supercoils and relax the DNA, followed by religation. Upon removal of the compound and the enzyme by butanol extraction, the twist will increase, so the writhe will decrease, resulting in more negatively supercoiled DNA, which runs faster on agarose gel. […] This assay should be verified by performing a second reaction using a negatively supercoiled plasmid as a substrate to confirm that the compound is not simply acting as an inhibitor of the Topo I.
The DNA Unwinding Assay Kit (Cat no. DUKSR001) was purchased from Inspiralis (Norwich, UK). […] After extraction, the aqueous layer was mixed with an equal volume of STEB buffer (40% (w/v) sucrose, Tris–HCl (100 mM, pH 8), EDTA (1 mM), bromophenol blue (0.5 mg/ml)), extracted with chloroform/isoamyl alcohol (24:1), and analysed on 1% agarose gel in TAE buffer at 70 V for 2 h, followed by ethidium bromide staining. […]

[3] = system: HepG2 cells; experiment: Cell cycle analysis by flow cytometry (PI); format: cell-based, human; conditions: HepG2, 24 h, total IC50 concentration; 5% in untreated cells
Protocol: The DNA content was determined using flow cytometry with PI (Sigma-Aldrich, Steinheim, Germany) staining. After incubation, the cells were trypsinized and washed twice with 1 ml of PBS (Capricorn). In the next step, the cells were fixed with an ice-cold 80% ethanol. After incubation for 1 h at 4 °C, the fixed cells were washed twice with PBS and suspended in the staining PI/RNAse A/PBS buffer (PI 50 µg/ml, RNAse A 100 µg/ml) for 30 min at 37 °C in the dark. PI (Sigma) fluorescence was measured using a FACSCalibur (Becton Dickinson), and data were analysed using the FlowJo software (Becton Dickinson).

[4] = system: HepG2 cells; experiment: Mitochondrial membrane potential (MMP) measurement (JC-1); format: cell-based, human; conditions: HepG2, 3-h treatment, 4.5 µM; 69.9% in control cells
Protocol: The HepG2 cells were seeded at the density of 2 × 10^5 cells/well onto 12-well plates and cultured with EMEM at 37 °C under 5% CO2 saturation until 70–80% confluency was reached. […] After incubation, the cells were detached with trypsin (Corning®) and washed twice with 1 ml of DPBS (Capricorn), and alterations in ΔΨm were analysed using the MMP-sensitive cationic dye 5,5′,6,6′-tetrachloro-1,1′,3,3′-tetraethylbenzimidazolylcarbocyanine iodide (JC-1; Thermo Fisher Scientific), which can selectively enter mitochondria and change colour from red to green as the membrane potential decreases. The cells were stained with 2.5 µM JC-1 for 30 min at 37 °C in the dark. The maximum emission wavelengths of JC-1 monomers and “J-aggregates” were ∼ 525 (FL-1 channel) and ∼ 590 (FL-2 channel) nm, respectively. To create a strong, single positive green fluorescence signal, 3 µM FCCP was used. The mean fluorescence intensity representing the intracellular MMP level was analysed after incubation with the dye, with excitation at 488 nm using a FACSCalibur flow cytometer (Becton Dickinson), and the data were analysed using the FlowJo software (Becton Dickinson).

| Substance | Ca2+ accumulation compared to control [1] | DNA intercalation (supercoiled DNA fraction from relaxed plasmid) [2] | accumulation of cells in G2M phase [3] | MMP, JC-1 aggregates [4] |
| --- | --- | --- | --- | --- |
| 4-[(6-[(1,2-Dicarba-closo-dodecaborane-1-yl)ethylamino]hexyl)amino]-3-nitro-N-[2-(N-pyrrolidinyl)ethyl]-1,8-naphthalimide [Compound 36] | slightest effect | – | – | – |
| 4-[(6-[(1,7-Dicarba-closo-dodecaborane-1-yl)ethylamino]hexyl)amino]-3-nitro-N-[2-(N-pyrrolidinyl)ethyl]-1,8-naphthalimide [Compound 37] | – | strongest DNA intercalator | 15% | – |
| 4-[(6-[(1,7-Dicarba-closo-dodecaborane-1-yl)ethylamino]hexyl)amino]-N-[2-(dimethylamino)ethyl]-3-nitro-1,8-naphthalimide [Compound 35] | more than threefold | – | 15% | 90.8% |
